{"source": "patent US20130243847A1", "about": "“ACTIVATED CREATININE AND PRECURSORS THEREOF AS ANTIBACTERIAL AGENTS, COMPOSITIONS AND PRODUCTS CONTAINING SUCH AGENTS AND USE THEREOF” (BOARD OF REGENTS OF THE UNIVERSITY OF NEBRASKA, priority 2010, published 2013)", "assay_type_in_all_cases": "cell-based", "key": {"S. aureus": {"tested_on": "S. aureus", "experiment": "Disc diffusion assay of creatine esters (Example 6)", "conditions": "approx. 50 μL anhydrous polyethylene glycol carrier with 28% by weight agent", "method": "Four (4) different creatine esters were prepared according to the method of U.S. Pat. No. 6,897,334 to Vennerstrom. The esters thus prepared were activated in the manner described herein to impart antibacterial activity thereto. Four (4) test formulations were prepared, each including approximately 50 μL of an anhydrous polyethylene glycol carrier containing 28% by weight of a different creatine ester. Each formulation was added to a 6 mm disc and inverted onto a brain heart infusion agar plate that was previously spread with S. aureus at 10^5 organisms per mL. Plates were incubated at 37° C. overnight and the clear zones showing inhibition of bacterial growth were measured."}, "Staphylococcus aureus": {"tested_on": "Staphylococcus aureus", "experiment": "Disc assay of creatinine activated with different acids (Example 1, FIG. 1)", "conditions": "for antibacterial activity after acid activation (FIG. 1): 5 mg acidified creatinine in Eridex on 6 mm disc, pH 5.0-5.5, S. aureus 10^5 per mL; for antibacterial activity of acid in Eridex alone: without creatinine at pH 5.5", "method": "A 2 molar solution of anhydrous creatinine (Sigma-Aldrich Chemical Co. St. Louis, Mo.) was prepared in water (113 mg in 0.5 ml H2O) and adjusted to pH 5.0-5.5 with different acids. Twenty five microliters of each pH adjusted solution was added to 30 milligrams of a powdered carrier, Eridex™, (crystalline sugar alcohol) (Cargill Inc. Cedar Rapids, Iowa), and stirred into a thickened slurry. Approximately 50 microliters of each mixture, containing 5 mg of acidified creatinine, was applied to a 6 mm disc and inverted onto a brain heart infusion agar plate that was spread one hour prior with Staphylococcus aureus diluted to 10^5 organisms per milliliter. Plates were incubated at 37° C. overnight and the clear zones showing inhibition of bacterial growth were measured. Each sample was run in duplicate and reported as an average +/−1 mm of the two measurements. Creatinine HCl was used as an internal standard on each plate to provide uniformity from plate to plate (measurements varied <0.5 mm). Hydrochloride sig, a commercial creatinine HCl salt from Sigma-Aldrich, was used at pH 5.0 with no adjustment."}, "[1]": {"tested_on": "Acinetobacter baumannii high level resistance (HLR)", "experiment": "Disc diffusion assay, CEE vs gentamicin", "conditions": "A. baumannii HLR; 50 mg anhydrous topical cream with 28% by weight agent; gentamicin 10 μg disc", "method": "(§1) This testing involved the use of 50 mg of an anhydrous topical cream containing the antibacterial agent of the invention in an amount of 28% by weight and 10 μg of gentamicin, impregnated into a standard commercially available disc (Remel, Lenoxa Kans.)."}, "[2]": {"tested_on": "Candida albicans laboratory strain 24433", "experiment": "Disc diffusion assay, CEE vs gentamicin", "conditions": "C. albicans laboratory strain 24433; 50 mg anhydrous topical cream with 28% by weight agent; gentamicin 10 μg disc", "method": "as §1"}, "[3]": {"tested_on": "Enterococcus faecalis laboratory strain 29212", "experiment": "Disc diffusion assay, CEE vs gentamicin", "conditions": "E. faecalis laboratory strain 29212; 50 mg anhydrous topical cream with 28% by weight agent; gentamicin 10 μg disc", "method": "as §1"}, "[4]": {"tested_on": "Enterococcus faecium vancomycin resistant (VRE)", "experiment": "Disc diffusion assay, CEE vs gentamicin", "conditions": "E. faecium VRE; 50 mg anhydrous topical cream with 28% by weight agent; gentamicin 10 μg disc", "method": "as §1"}, "[5]": {"tested_on": "Escherichia coli laboratory strain 35150", "experiment": "Disc diffusion assay, CEE vs gentamicin", "conditions": "E. coli laboratory strain 35150; 50 mg anhydrous topical cream with 28% by weight agent; gentamicin 10 μg disc", "method": "as §1"}, "[6]": {"tested_on": "Pseudomonas aeruginosa high level resistance (HLR)", "experiment": "Disc diffusion assay, CEE vs gentamicin", "conditions": "P. aeruginosa HLR; 50 mg anhydrous topical cream with 28% by weight agent; gentamicin 10 μg disc", "method": "as §1"}, "[7]": {"tested_on": "Pseudomonas aeruginosa laboratory strain 27853", "experiment": "Disc diffusion assay, CEE vs gentamicin", "conditions": "P. aeruginosa laboratory strain 27853; 50 mg anhydrous topical cream with 28% by weight agent; gentamicin 10 μg disc", "method": "as §1"}, "[8]": {"tested_on": "Staphylococcus aureus laboratory strain 29213", "experiment": "Disc diffusion assay, CEE vs gentamicin", "conditions": "S. aureus laboratory strain 29213; 50 mg anhydrous topical cream with 28% by weight agent; gentamicin 10 μg disc", "method": "as §1"}, "[9]": {"tested_on": "Staphylococcus aureus methicillin resistant (MRSA)", "experiment": "Disc diffusion assay, CEE vs gentamicin", "conditions": "S. aureus MRSA; 50 mg anhydrous topical cream with 28% by weight agent; gentamicin 10 μg disc", "method": "as §1"}, "[10]": {"tested_on": "Escherichia coli beta lactamase producer (ESBL)", "conditions": "E. coli ESBL; 50 mg anhydrous topical cream with 28% by weight agent; gentamicin 10 μg disc", "method": "as §1"}}, "data": [{"molecule": "CN(CC(=O)OCc1ccccc1)C(=N)N", "note": "[Benzyl]", "values": [{"measurement": "Zone of Inhibition", "setting": "S. aureus", "value": 23, "unit": "mm"}]}, {"molecule": "CCCCCCCCOC(=O)CN(C)C(=N)N", "note": "[Octyl]", "values": [{"measurement": "Zone of Inhibition", "setting": "S. aureus", "value": 27, "unit": "mm"}]}, {"molecule": "CC(=O)O", "note": "[acetate]", "values": [{"measurement": "antibacterial activity after acid activation (FIG. 1)", "setting": "Staphylococcus aureus", "value": "significant activity"}, {"measurement": "antibacterial activity after acid activation (FIG. 1)", "setting": "Staphylococcus aureus; listed as creatinine activated with acetic acid", "value": "substantially greater antibacterial activity than creatinine activated with nitric or hydrochloric acid"}]}, {"molecule": "CC(=O)O", "note": "[acetic acid, reference compound]", "values": [{"measurement": "antibacterial activity of acid in Eridex alone", "setting": "Staphylococcus aureus", "value": "no antibacterial activity"}]}, {"molecule": "O=C(O)CC(O)(CC(=O)O)C(=O)O", "note": "[citric acid, reference compound]", "values": [{"measurement": "antibacterial activity of acid in Eridex alone", "setting": "Staphylococcus aureus", "value": "no antibacterial activity"}]}, {"molecule": "Gentamicin [Gn, reference compound]", "values": [{"measurement": "Zone of Inhibition", "setting": "[1]", "value": 6, "unit": "mm"}, {"measurement": "Zone of Inhibition", "setting": "[2]", "value": 8, "unit": "mm"}, {"measurement": "Zone of Inhibition", "setting": "[3]", "value": 14, "unit": "mm"}, {"measurement": "Zone of Inhibition", "setting": "[4]", "value": 8, "unit": "mm"}, {"measurement": "Zone of Inhibition", "setting": "[5]", "value": 21, "unit": "mm"}, {"measurement": "Zone of Inhibition", "setting": "[6]", "value": 8, "unit": "mm"}, {"measurement": "Zone of Inhibition", "setting": "[7]", "value": 21, "unit": "mm"}, {"measurement": "Zone of Inhibition", "setting": "[8]", "value": 24, "unit": "mm"}, {"measurement": "Zone of Inhibition", "setting": "[9]", "value": 7, "unit": "mm"}, {"measurement": "Zone of Inhibition", "setting": "[10]", "value": 24, "unit": "mm"}]}, {"molecule": "citrate", "values": [{"measurement": "antibacterial activity after acid activation (FIG. 1)", "setting": "Staphylococcus aureus", "value": "significant activity"}]}, {"molecule": "fumaric", "values": [{"measurement": "antibacterial activity after acid activation (FIG. 1)", "setting": "Staphylococcus aureus", "value": "little to no antibacterial activity"}]}, {"molecule": "sulfuric", "values": [{"measurement": "antibacterial activity after acid activation (FIG. 1)", "setting": "Staphylococcus aureus", "value": "little to no antibacterial activity"}]}]}
